From ChEMBL document CHEMBL5465560, “Selectivity Literature for EUbOPEN Chemogenomic Library” (2024) come the findings set out here.

Test [1] deals with T1, Protein kinase C alpha type (Homo sapiens, UniProt P17252). Put plainly: Selectivity interaction (ProQinase) EUB0000171b PRKCA.
Test [2] has as its target Serine/threonine-protein kinase MRCK alpha (Homo sapiens) (UniProt Q5VT25). Conditions: at 10 µM.
Test [3] has as its system ALK tyrosine kinase receptor (Homo sapiens), Q9UM73 [C1156Y]. The test can be described thus: (§1) Selectivity interaction (Ambit KINOMEscan and KiNATiv profiling in Jurkat cells) EUB0000090b ALK. The following applies: at 1 µM. In kind it is cell-based.
Test [4] concerns ALK tyrosine kinase receptor (Homo sapiens), Q9UM73 [L1196M]. The test is described as §1. In kind it is cell-based. The following applies: at 1 µM.
The target in test [5] is ALK tyrosine kinase receptor (Homo sapiens, UniProt Q9UM73). The description is as §1. Conditions: at 1 µM. In kind it is cell-based.
Test [6] concerns the target Fibroblast growth factor receptor 2 (Homo sapiens) (UniProt P21802). The test can be described thus: Selectivity interaction (KinaseProfiler screening (Millipore)) EUB0000601a FGFR2. Conditions: at 3 µM.
In test [7] the target is BMP-2-inducible protein kinase (Homo sapiens) (UniProt Q9NSY1). The test can be described thus: Selectivity interaction (KinomeScan (DiscoverX)) EUB0000092b BMP2K. Conditions: at 10 µM.
Test [8] has as its target DNA (cytosine-5)-methyltransferase 1 (Homo sapiens) (UniProt P26358). Put plainly: Selectivity interaction (Methyltransferase screen (Scintillation proximity assays)) EUB0000255b DNMT1. In general terms: In a scintillation proximity assay essentially only radioactivity close to the scintillant gives light.
Test [9] addresses 5'-AMP-activated protein kinase catalytic subunit alpha-2 (Homo sapiens) (UniProt P54646). Put plainly: Selectivity interaction (KinomeScan (DiscoverX)) EUB0000655a PRKAA2. Conditions: at 10 µM.
In test [10] the target is Bromodomain-containing protein 8 (Homo sapiens) (UniProt Q9H0E9). The test can be described thus: Selectivity interaction (Bromodomain panel (DSF asssay)) EUB0000270b BRD8.
For test [11], the system named is Tyrosine-protein kinase ABL1 (Homo sapiens), P00519 [F317L]. Put plainly: Selectivity interaction (KinomeScan (DiscoverX)) EUB0000045b ABL1. Conditions: at 10 µM.
Test [12] concerns the target Ribosomal protein S6 kinase alpha-5 (Homo sapiens) (UniProt O75582). The test can be described thus: Selectivity interaction (KinomeScan (DiscoverX)) EUB0000045b RPS6KA5.
Test [13] concerns the target T2, Serine/threonine-protein kinase D3 (Homo sapiens) (UniProt O94806).
T2 sequence (whole entry): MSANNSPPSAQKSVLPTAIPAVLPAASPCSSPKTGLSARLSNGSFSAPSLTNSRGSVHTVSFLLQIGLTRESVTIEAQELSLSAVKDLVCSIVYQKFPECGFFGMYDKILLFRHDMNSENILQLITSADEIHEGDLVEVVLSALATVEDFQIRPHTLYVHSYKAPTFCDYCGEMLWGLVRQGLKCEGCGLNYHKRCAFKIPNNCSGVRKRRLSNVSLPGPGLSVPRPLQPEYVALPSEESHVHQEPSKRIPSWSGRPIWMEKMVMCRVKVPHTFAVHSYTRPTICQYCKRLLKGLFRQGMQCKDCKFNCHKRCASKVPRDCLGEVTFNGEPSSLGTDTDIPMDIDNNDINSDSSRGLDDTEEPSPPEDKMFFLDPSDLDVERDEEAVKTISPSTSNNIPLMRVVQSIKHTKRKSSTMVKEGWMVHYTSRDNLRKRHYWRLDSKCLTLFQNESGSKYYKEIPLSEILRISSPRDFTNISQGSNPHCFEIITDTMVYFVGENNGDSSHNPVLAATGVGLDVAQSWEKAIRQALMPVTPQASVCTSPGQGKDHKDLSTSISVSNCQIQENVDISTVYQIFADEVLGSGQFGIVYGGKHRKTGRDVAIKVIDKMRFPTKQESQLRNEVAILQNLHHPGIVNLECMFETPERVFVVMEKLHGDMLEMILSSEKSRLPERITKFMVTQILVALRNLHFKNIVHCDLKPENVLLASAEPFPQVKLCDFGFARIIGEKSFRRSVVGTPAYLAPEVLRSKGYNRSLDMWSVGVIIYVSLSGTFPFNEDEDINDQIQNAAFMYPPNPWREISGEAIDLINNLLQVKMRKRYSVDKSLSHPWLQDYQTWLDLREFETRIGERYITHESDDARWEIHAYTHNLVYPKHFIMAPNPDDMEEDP
Put plainly: Selectivity interaction (ActivX KiNativ screen (kinase selectivity in THP-1 cell lysates)) EUB0000639a PRKD3. In kind it is subcellular. Conditions: lysate, at 1 µM.

The target of test [14] is T1, Protein kinase C alpha type. Put plainly: Selectivity interaction (Kinase panel (Invitrogen)) EUB0000639a PRKCA. The following applies: at 200 nM.
Test [15] deals with Receptor-interacting serine/threonine-protein kinase 2 (Homo sapiens, UniProt O43353). The test can be described thus: Selectivity interaction (KinomeScan (DiscoverX)) EUB0000229b RIPK2. The following applies: at 10 µM.
The target of test [16] is Growth hormone secretagogue receptor type 1 (Homo sapiens, UniProt Q92847). Put plainly: Selectivity interaction (Ghrelin receptor binding assay, human recombinant ) EUB0000877a […].
Test [17] concerns the target T3, Mitogen-activated protein kinase kinase kinase 7 (Homo sapiens) (UniProt O43318).
T3 sequence (whole entry): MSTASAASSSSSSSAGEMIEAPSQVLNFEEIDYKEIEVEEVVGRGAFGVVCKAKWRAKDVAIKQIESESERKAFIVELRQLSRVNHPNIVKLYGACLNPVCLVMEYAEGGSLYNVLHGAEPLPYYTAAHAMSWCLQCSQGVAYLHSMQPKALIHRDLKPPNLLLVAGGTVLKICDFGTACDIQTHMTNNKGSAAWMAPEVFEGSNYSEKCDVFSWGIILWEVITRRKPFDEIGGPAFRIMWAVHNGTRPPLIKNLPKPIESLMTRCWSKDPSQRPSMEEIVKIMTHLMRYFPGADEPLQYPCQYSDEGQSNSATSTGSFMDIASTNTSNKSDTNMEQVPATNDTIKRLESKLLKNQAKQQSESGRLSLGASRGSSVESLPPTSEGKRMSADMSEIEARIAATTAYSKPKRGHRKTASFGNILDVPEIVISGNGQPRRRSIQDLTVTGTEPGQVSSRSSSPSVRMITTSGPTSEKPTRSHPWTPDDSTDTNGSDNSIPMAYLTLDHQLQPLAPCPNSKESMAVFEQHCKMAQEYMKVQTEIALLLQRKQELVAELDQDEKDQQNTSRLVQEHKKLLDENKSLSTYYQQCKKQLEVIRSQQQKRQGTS
Put plainly: Selectivity interaction (KinomeScan (DiscoverX)) EUB0001619a MAP3K7. The following applies: at 1 µM.

Sequence of DNA (cytosine-5)-methyltransferase 1 (Homo sapiens) (P26358 whole entry): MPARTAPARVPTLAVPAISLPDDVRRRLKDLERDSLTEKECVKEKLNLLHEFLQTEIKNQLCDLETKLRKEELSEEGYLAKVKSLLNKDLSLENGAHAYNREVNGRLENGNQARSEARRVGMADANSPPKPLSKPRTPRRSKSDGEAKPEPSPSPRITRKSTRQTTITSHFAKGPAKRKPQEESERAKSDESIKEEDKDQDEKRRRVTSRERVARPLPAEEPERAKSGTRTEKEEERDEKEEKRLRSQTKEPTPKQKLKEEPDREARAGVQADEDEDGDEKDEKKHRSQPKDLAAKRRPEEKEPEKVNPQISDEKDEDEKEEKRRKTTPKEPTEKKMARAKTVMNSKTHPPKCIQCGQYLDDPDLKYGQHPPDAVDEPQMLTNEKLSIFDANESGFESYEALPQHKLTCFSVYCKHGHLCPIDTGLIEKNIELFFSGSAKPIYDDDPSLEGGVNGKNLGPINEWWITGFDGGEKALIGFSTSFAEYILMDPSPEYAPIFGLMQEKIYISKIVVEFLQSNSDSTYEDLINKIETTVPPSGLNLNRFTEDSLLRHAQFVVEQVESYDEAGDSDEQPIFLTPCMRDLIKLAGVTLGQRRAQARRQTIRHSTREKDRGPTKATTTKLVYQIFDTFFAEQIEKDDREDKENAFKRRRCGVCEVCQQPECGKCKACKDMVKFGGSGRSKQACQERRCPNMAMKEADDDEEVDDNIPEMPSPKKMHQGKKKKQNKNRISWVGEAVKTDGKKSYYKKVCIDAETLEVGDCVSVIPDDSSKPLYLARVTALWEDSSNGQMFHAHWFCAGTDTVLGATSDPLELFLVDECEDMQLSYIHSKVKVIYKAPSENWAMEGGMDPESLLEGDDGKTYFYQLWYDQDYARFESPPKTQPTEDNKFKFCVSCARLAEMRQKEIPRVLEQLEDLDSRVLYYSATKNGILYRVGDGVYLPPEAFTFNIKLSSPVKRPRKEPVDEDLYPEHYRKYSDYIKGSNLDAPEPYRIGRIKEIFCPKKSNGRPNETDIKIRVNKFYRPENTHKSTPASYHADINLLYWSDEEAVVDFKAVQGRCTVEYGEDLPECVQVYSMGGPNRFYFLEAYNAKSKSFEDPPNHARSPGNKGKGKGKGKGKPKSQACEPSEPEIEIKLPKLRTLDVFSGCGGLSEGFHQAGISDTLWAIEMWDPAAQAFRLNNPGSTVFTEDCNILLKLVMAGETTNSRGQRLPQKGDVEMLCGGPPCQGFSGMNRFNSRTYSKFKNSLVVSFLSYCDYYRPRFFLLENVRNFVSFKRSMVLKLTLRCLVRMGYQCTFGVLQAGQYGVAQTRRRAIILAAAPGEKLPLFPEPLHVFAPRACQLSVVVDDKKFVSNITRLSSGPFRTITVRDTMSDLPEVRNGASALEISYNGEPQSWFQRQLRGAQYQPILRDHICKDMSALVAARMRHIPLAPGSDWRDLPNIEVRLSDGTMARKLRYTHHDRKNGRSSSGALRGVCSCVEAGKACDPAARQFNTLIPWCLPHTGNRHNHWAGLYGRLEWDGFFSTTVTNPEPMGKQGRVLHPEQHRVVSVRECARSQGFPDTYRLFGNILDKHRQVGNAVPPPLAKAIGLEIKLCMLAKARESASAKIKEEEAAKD
Sequence of Ribosomal protein S6 kinase alpha-5 (Homo sapiens) (O75582 whole entry, looked up): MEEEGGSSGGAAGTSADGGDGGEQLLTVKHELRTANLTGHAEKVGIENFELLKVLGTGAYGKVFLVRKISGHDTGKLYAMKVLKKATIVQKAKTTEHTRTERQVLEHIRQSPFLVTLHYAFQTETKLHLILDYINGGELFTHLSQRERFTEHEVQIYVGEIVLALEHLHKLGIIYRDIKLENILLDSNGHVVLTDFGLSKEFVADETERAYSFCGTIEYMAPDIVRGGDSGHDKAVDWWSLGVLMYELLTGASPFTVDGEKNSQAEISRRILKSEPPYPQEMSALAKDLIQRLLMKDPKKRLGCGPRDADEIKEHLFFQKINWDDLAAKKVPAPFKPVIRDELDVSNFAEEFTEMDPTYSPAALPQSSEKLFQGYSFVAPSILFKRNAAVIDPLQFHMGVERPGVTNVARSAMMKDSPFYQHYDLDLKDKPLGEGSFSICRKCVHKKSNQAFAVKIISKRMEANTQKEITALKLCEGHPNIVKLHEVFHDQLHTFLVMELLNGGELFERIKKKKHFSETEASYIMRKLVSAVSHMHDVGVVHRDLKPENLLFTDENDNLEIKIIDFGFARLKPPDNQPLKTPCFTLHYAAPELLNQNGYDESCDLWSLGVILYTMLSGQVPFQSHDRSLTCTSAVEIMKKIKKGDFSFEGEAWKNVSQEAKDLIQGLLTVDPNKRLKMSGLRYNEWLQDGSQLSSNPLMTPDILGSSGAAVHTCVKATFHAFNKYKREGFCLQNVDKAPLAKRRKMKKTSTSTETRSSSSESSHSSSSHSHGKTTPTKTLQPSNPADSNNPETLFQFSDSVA
Sequence of Fibroblast growth factor receptor 2 (Homo sapiens) (P21802 22-821 limits assumed): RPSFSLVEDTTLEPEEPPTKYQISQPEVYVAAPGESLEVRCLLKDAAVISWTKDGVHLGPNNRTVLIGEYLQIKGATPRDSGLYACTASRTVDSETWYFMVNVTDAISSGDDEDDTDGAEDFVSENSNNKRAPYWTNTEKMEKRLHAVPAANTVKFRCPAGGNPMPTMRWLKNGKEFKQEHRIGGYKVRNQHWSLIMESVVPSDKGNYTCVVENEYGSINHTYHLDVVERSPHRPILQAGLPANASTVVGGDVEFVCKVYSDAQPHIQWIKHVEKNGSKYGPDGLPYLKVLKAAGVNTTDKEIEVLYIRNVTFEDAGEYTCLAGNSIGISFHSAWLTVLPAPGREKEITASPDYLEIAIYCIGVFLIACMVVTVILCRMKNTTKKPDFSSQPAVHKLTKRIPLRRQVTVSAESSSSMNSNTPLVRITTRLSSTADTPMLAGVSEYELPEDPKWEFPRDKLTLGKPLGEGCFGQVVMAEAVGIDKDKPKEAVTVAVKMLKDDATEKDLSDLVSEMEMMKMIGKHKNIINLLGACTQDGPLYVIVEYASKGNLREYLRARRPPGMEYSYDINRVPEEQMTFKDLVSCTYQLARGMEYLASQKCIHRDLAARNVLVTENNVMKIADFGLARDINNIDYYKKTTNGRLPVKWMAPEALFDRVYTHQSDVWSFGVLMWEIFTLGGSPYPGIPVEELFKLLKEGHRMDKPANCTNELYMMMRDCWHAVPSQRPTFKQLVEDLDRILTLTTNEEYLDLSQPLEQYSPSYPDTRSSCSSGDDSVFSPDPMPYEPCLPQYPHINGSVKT
Sequence of Receptor-interacting serine/threonine-protein kinase 2 (O43353 whole entry): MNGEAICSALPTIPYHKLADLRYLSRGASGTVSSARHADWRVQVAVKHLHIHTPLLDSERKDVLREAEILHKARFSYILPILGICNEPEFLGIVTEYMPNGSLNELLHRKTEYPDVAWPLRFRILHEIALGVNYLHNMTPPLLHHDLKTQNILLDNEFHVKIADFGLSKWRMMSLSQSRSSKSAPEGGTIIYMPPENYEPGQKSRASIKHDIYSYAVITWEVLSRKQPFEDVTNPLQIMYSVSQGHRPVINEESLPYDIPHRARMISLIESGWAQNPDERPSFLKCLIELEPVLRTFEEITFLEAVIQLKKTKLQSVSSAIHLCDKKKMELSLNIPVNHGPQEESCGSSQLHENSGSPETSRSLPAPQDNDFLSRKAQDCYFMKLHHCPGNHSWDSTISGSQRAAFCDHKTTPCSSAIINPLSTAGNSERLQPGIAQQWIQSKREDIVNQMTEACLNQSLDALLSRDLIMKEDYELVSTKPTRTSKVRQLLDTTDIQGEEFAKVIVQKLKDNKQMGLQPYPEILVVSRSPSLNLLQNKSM
Sequence of 5'-AMP-activated protein kinase catalytic subunit alpha-2 (Homo sapiens) (P54646 whole entry, looked up): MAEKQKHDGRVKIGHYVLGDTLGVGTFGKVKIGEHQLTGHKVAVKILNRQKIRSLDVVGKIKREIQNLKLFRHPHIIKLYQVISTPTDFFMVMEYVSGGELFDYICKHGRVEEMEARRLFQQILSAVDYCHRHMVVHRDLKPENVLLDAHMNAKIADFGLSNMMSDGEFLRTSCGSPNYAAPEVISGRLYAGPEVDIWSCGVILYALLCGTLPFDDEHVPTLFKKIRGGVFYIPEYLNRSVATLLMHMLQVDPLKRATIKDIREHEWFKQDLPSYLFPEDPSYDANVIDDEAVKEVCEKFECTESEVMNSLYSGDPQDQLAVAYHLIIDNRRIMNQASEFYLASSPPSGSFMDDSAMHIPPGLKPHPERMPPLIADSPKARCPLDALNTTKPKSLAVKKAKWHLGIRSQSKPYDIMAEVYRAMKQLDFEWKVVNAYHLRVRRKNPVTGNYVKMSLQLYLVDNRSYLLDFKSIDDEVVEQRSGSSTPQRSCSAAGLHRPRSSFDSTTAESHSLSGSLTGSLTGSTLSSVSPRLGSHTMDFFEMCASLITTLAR

In the case of `C=CC(=O)Nc1cccc(C(=O)Nc2ccc(Nc3cc(-c4[nH]c(SC)nc4C)ccn3)cc2)c1`, the % of control stood at 102% in test [1] (at 1 µM) and 80% in test [1] (at 5 µM). `Cc1cc([C@@H](C)Nc2ccccc2C(=O)O)c2nc(N3CCOCC3)cc(=O)n2c1` [AZD-6482] returned a % of control in [2] of 96%. For `CN(C)C/C=C/C(=O)Nc1ccc(C(=O)N2CCCC(Nc3ncc(Cl)c(-c4c[nH]c5ccccc45)n3)C2)cc1` (stereo not given), the % of control in test [3] is 100%; in test [4], 99%; in [5], 86%. In [6], `CCc1cc(Nc2nccc(-c3c(-c4ccc(OC)c(C(=O)Nc5c(F)cccc5F)c4)nc4ccccn34)n2)c(OC)cc1N1CCC(N2CCN(S(C)(=O)=O)CC2)CC1` had a % of inhibition of 50%. Consider `CCC(=O)N1CCN(c2ccc(-n3c(=O)ccc4cnc5ccc(-c6cnc7ccccc7c6)cc5c43)cc2C(F)(F)F)CC1`, for which, in [7], the % of control came to 100%.

As to `COCCN1CCC(c2cc(CN(C)C(=O)c3cccc(Oc4ccccc4)c3)ccn2)CC1`, the % activity in [8] (at 1 µM) was greater than 95%; in test [8] (at 10 µM), 79%. `CN(C)CCOc1ccc(-c2nc(-c3ccncc3)c(-c3ccc4c(c3)CC/C4=N\O)[nH]2)cc1` came in with a % of control in test [9] of 94%. `Cc1cc(CN)cc(C)c1-c1ncn(C)c1-c1cncn1C` gave a dTM in test [10] of -1.17 K.

As to `C=CC(=O)Nc1cc(-n2c(=O)ccc3cnc4ccc(-c5ccc(NS(C)(=O)=O)cc5)cc4c32)ccc1C`, the % of control came out at 75% in test [11], 100% in test [12] (at 1 µM) and 100% in test [12] (at 10 µM). Take `CC[C@@H]1[C@H](F)C(=O)N[C@@H]1COc1nccc2cc(C(N)=O)c(OC)cc12` [ZIMLOVISERTIB]: the values for the % of inhibition in test [13] and in test [14] were 1.2% and 6.64%, respectively. `COc1cc(N(C)c2ccnc3ccc(C(F)(F)F)cc23)cc(OC)c1OC` registered a % binding in test [15] of 58%.

The term IC50 denotes the midpoint of a concentration-inhibition curve. In the case of `CCC(=O)N1CC[C@H](Nc2ncnc3c2CN(c2cnc(OC)c(C(F)(F)F)c2)CC3)C1` [LENIOLISIB], the IC50 in test [16] is greater than 30 µM. In [17], `N#Cc1cccc(-c2c[nH]c3ncnc(N4CCOCC4)c23)c1` came in with a % of control of 55%.
